According to ChEMBL document CHEMBL3885861, “Open TG-GATES”:

Species on record: Rattus norvegicus
Assay: Open TG-GATES - Regimen: Single
Type: toxicity, organism-based, Sprague-Dawley
Parameters: regimen Single, gender Male, age 6 weeks
Settings: in vivo, po, 100 mg/kg, route gavage, dose level Low; for APTT / Bas / Eos / Fbg / Hb / Ht / Lym / MCH / MCHC / MCV / Mono / Neu / PT / Plat / RBC / Ret / WBC: tissue Blood; for KIDNEY_L / KIDNEY_R / KIDNEY_TOTAL: tissue Kidney; for LIVER: tissue Liver; for A/G / ALP / ALT / AST / BUN / CRE / Ca / Cl / DBIL / GLC / IP / K / LDH / Na / PL / RALB / TBIL / TC / TG / TP / gamma-GTP: tissue Plasma

O=C(O)COc1nn(Cc2ccccc2)c2ccccc12 [BENDAZAC]
TERMINAL_BW (3 h): 207.2 g | APTT (3 h): 16.8 s | Bas (3 h): 0% | Eos (3 h): 1% | Fbg (3 h): 209.6 mg/dL | Hb (3 h): 14 g/dL | Ht (3 h): 42.1% | Lym (3 h): 80.8% | MCH (3 h): 21.8 pg | MCHC (3 h): 33.4% | MCV (3 h): 65.2 fL | Mono (3 h): 7.2% | Neu (3 h): 11.6% | PT (3 h): 11.3 s | Plat (3 h): 131.9 x10_4/uL | RBC (3 h): 644.8 x10_4/ul | Ret (3 h): 9.1% | WBC (3 h): 111.8 x10_2/uL | KIDNEY_L (3 h): 1 g | KIDNEY_R (3 h): 1 g | KIDNEY_TOTAL (3 h): 1.9 g | LIVER (3 h): 9.9 g | A/G (3 h): 2.1 | ALP (3 h): 1620.8 IU/L | ALT (3 h): 35.8 IU/L | AST (3 h): 68 IU/L | BUN (3 h): 12.8 mg/dL | CRE (3 h): 0.6 mg/dL | Ca (3 h): 10.9 mg/dL | Cl (3 h): 102 meq/L | DBIL (3 h): 0.008 mg/dL | GLC (3 h): 196.8 mg/dL | IP (3 h): 9.2 mg/dL | K (3 h): 4.6 meq/L | LDH (3 h): 93.2 IU/L | Na (3 h): 140.2 meq/L | PL (3 h): 130.2 mg/dL | RALB (3 h): 3.7 g/dL | TBIL (3 h): 1.4 mg/dL | TC (3 h): 73.6 mg/dL | TG (3 h): 56.2 mg/dL | TP (3 h): 5.4 g/dL | gamma-GTP (3 h): 1.4 IU/L | TERMINAL_BW (6 h): 207.8 g | APTT (6 h): 16.4 s | Bas (6 h): 0% | Eos (6 h): 1% | Fbg (6 h): 202.2 mg/dL | Hb (6 h): 13.9 g/dL | Ht (6 h): 41.6% | Lym (6 h): 79.4% | MCH (6 h): 21.6 pg | MCHC (6 h): 33.4% | MCV (6 h): 64.9 fL | Mono (6 h): 8.8% | Neu (6 h): 11.2% | PT (6 h): 12 s | Plat (6 h): 113.2 x10_4/uL | RBC (6 h): 641.8 x10_4/ul | Ret (6 h): 10.5% | WBC (6 h): 96.2 x10_2/uL | KIDNEY_L (6 h): 1 g | KIDNEY_R (6 h): 1 g | KIDNEY_TOTAL (6 h): 2 g | LIVER (6 h): 9.2 g | A/G (6 h): 2.3 | ALP (6 h): 1175.6 IU/L | ALT (6 h): 35.2 IU/L | AST (6 h): 66 IU/L | BUN (6 h): 13 mg/dL | CRE (6 h): 0.6 mg/dL | Ca (6 h): 10.8 mg/dL | Cl (6 h): 103.4 meq/L | DBIL (6 h): 0.09 mg/dL | GLC (6 h): 183.8 mg/dL | IP (6 h): 10.7 mg/dL | K (6 h): 4.8 meq/L | LDH (6 h): 90.6 IU/L | Na (6 h): 140.2 meq/L | PL (6 h): 126 mg/dL | RALB (6 h): 3.7 g/dL | TBIL (6 h): 1.2 mg/dL | TC (6 h): 70.8 mg/dL | TG (6 h): 41.4 mg/dL | TP (6 h): 5.3 g/dL | gamma-GTP (6 h): 1.8 IU/L | TERMINAL_BW (9 h): 207.3 g | APTT (9 h): 17 s | Bas (9 h): 0% | Eos (9 h): 1% | Fbg (9 h): 218.2 mg/dL | Hb (9 h): 13.5 g/dL | Ht (9 h): 40.3% | Lym (9 h): 70% | MCH (9 h): 22 pg | MCHC (9 h): 33.6% | MCV (9 h): 65.4 fL | Mono (9 h): 8.8% | Neu (9 h): 20% | PT (9 h): 11.7 s | Plat (9 h): 125.1 x10_4/uL | RBC (9 h): 617 x10_4/ul | Ret (9 h): 8.5% | WBC (9 h): 105.7 x10_2/uL | KIDNEY_L (9 h): 0.9 g | KIDNEY_R (9 h): 1 g | KIDNEY_TOTAL (9 h): 1.9 g | LIVER (9 h): 8.6 g | A/G (9 h): 2.1 | ALP (9 h): 1541.8 IU/L | ALT (9 h): 29 IU/L | AST (9 h): 58.2 IU/L | BUN (9 h): 11.6 mg/dL | CRE (9 h): 0.6 mg/dL | Ca (9 h): 10.6 mg/dL | Cl (9 h): 104.4 meq/L | DBIL (9 h): 0.034 mg/dL | GLC (9 h): 189 mg/dL | IP (9 h): 9.8 mg/dL | K (9 h): 4.4 meq/L | LDH (9 h): 90.2 IU/L | Na (9 h): 142.8 meq/L | PL (9 h): 127.2 mg/dL | RALB (9 h): 3.8 g/dL | TBIL (9 h): 1 mg/dL | TC (9 h): 75.4 mg/dL | TG (9 h): 34.2 mg/dL | TP (9 h): 5.6 g/dL | gamma-GTP (9 h): 1.2 IU/L | TERMINAL_BW (24 h): 225.9 g | APTT (24 h): 17.2 s | Bas (24 h): 0% | Eos (24 h): 1% | Fbg (24 h): 209.8 mg/dL | Hb (24 h): 13.4 g/dL | Ht (24 h): 40.2% | Lym (24 h): 73% | MCH (24 h): 21.6 pg | MCHC (24 h): 33.3% | MCV (24 h): 64.9 fL | Mono (24 h): 11.6% | Neu (24 h): 14.4% | PT (24 h): 11.8 s | Plat (24 h): 115.2 x10_4/uL | RBC (24 h): 619 x10_4/ul | Ret (24 h): 7.9% | WBC (24 h): 109.4 x10_2/uL | KIDNEY_L (24 h): 1.1 g | KIDNEY_R (24 h): 1.1 g | KIDNEY_TOTAL (24 h): 2.2 g | LIVER (24 h): 11.5 g | A/G (24 h): 2.1 | ALP (24 h): 1133.2 IU/L | ALT (24 h): 39.6 IU/L | AST (24 h): 62.8 IU/L | BUN (24 h): 16.8 mg/dL | CRE (24 h): 0.6 mg/dL | Ca (24 h): 11.3 mg/dL | Cl (24 h): 104.2 meq/L | DBIL (24 h): 0.024 mg/dL | GLC (24 h): 204.8 mg/dL | IP (24 h): 8 mg/dL | K (24 h): 4.6 meq/L | LDH (24 h): 127.8 IU/L | Na (24 h): 141.2 meq/L | PL (24 h): 147 mg/dL | RALB (24 h): 3.7 g/dL | TBIL (24 h): 0.4 mg/dL | TC (24 h): 74.2 mg/dL | TG (24 h): 86.4 mg/dL | TP (24 h): 5.5 g/dL | gamma-GTP (24 h): 1.2 IU/L
